Assay results: ChEMBL document CHEMBL1201862, “PubChem BioAssay data set” (2004)
Active and inactive are the calls of the source.

How the values were obtained:
[1] = miR-122 activators in hepatoma reporter cells, dose response, cell-based, Huh7 psiCHECK-miR122, Renilla luciferase, cherry-picked (AID 651956); type: functional;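 note: huh7 hepatoma cells stably carrying a psiCHECK-2 miR-122 sensor plasmid; renilla luciferase signal reporting endogenous miR-122 activity after 48 h compound exposure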
[2] = HepG2 cell cytotoxicity, dose response, cytotoxicity control, plate reader, cherry-pick, antagonist series (AID 743416); type: functional, cell-based
[3] = A549 cell cytotoxicity, dose response, cytotoxicity control, plate reader, cherry-pick, antagonist series (AID 743412); type: functional, cell-based
[4] = HEK293 cell cytotoxicity, dose response, cytotoxicity control, plate reader, cherry-picked samples (AID 743446); type: functional, cell-based
[5] = inhibitors of SNCA 5'UTR-driven reporter translation, confirmation, H4 neuroglioma cells, luminescence (AID 1988); type: functional, cell-based
[6] = Luminescence Cell-Based Dose Response HTS to Identify Inhibitors of 5'UTR Stem-Loop Driven Prion Protein mRNA Translation in H4 Neuroglioblastoma Cells. [Related pubchem assays: 1827 (Project Summary), 1813 (Primary HTS)]; type: functional
[7] = MC4R antagonists, dose response, counter-screen for LGR2 antagonist project, cell-based, plate reader, cherry pick (AID 743444); type: functional;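 note: transfected HEK 293 cells stimulated with alpha-MSH peptide; potency of inhibitors of the alpha-MSH evoked signal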
[8] = biological target: Photoreceptor-specific nuclear receptor (Homo sapiens, UniProt Q9Y5X4); type: functional, cell-based;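 note: CHO-S cells with Gal4-NCOR and VP16-NR2E3 two-hybrid luciferase reporter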
Photoreceptor-specific nuclear receptor, sequence (Q9Y5X4 whole entry, the tested form may be a part): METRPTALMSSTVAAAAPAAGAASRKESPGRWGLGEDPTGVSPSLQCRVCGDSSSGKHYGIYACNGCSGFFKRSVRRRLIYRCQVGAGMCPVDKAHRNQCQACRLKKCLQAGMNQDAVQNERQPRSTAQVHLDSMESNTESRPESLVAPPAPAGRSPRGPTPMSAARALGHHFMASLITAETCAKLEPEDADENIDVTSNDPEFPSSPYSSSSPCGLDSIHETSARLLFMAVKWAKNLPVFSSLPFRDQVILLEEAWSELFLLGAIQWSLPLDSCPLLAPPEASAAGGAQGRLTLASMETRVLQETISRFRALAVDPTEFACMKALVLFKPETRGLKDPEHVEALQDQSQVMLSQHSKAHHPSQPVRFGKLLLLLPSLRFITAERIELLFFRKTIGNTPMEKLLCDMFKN

[9] = luciferase reporter signal reduction – luminescence, H4-C neuroglioblastoma cells, dose response (AID 2458); type: functional, cell-based;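 note: H4 neuroglioblastoma cells stably carrying a luciferase reporter gene fusion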
[10] = inhibitors of SNCA 5'UTR-driven translation, confirmation, luminescence, H4 neuroglioblastoma cells, dose confirmation (AID 2454); type: functional, cell-based;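 note: H4 neuroglioblastoma cells carrying an alpha-synuclein 5'UTR luciferase reporter; potency for inhibition of the luciferase signal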
cells = type: functional, cell-based
[11] = biological target: T1, Heat shock factor protein 1 (Mus musculus, UniProt P38532); assay: inhibition of MG132-induced HSE-luciferase signal, confirmation, cell-based, NIH3T3, luminescence, dose retest (AID 2382); type: functional;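 note: NIH3T3 fibroblasts with HSF1-driven luciferase reporter stressed by proteasome inhibitor MG132; luminescence from HSF1-driven luciferase expression after 8 hours of MG132 stress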
T1 sequence (P38532 whole entry): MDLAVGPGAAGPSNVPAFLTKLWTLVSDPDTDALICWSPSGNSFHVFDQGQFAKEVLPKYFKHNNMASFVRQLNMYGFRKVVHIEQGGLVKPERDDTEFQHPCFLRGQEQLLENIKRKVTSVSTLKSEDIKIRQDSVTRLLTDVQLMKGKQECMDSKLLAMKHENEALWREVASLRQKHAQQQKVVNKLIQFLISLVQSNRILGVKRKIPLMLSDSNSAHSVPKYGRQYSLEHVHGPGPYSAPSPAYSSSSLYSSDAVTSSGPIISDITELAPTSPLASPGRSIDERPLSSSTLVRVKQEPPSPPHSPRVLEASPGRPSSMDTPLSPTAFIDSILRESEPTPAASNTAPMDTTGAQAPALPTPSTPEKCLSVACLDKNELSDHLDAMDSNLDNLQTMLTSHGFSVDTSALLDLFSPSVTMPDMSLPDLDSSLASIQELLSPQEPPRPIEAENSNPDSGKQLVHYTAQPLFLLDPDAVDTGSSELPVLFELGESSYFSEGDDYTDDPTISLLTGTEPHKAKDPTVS

[12] = LGR2 antagonists, dose response, cell-based, HEK293, CRE-luciferase reporter, cherry pick, set 2 (AID 743343); type: functional;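 note: transfected cells were stimulated with diluted bursicon conditioned medium after compound addition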
[13] = biological target: T2, Methionyl-tRNA synthetase, putative (Trypanosoma brucei brucei, UniProt Q38C91); type: functional, Trypanosoma brucei brucei strain 927/4 GUTat10.1
T2 sequence (Q38C91 whole entry): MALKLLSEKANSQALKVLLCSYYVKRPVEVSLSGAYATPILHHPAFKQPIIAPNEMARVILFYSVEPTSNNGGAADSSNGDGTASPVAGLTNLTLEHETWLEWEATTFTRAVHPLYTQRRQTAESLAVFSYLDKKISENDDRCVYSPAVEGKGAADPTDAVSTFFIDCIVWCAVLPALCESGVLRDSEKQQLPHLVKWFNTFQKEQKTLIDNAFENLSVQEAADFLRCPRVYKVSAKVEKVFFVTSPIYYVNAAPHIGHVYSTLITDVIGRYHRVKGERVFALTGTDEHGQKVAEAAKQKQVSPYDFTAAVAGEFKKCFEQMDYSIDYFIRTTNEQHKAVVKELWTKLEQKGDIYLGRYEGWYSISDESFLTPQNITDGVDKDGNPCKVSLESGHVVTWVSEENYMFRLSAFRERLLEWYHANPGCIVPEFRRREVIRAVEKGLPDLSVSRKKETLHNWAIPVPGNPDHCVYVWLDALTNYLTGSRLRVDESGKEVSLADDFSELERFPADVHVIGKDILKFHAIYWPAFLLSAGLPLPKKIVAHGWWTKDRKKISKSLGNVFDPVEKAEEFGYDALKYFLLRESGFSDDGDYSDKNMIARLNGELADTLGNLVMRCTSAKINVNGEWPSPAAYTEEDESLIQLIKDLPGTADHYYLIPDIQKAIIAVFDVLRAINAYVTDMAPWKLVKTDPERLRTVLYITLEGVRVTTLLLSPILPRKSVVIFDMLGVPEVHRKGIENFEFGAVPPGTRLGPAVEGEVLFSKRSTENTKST

[14] = Counterscreen for inhibitors of Trypanosoma brucei methionyl tRNA synthetase (MetRS): Luminescence-based cell-based high throughput dose response assay to identify compounds that are cytotoxic to Jurkat human T lymphocyte cells.; type: functional
[15] = biological target: T2, Methionyl-tRNA synthetase, putative; type: functional, Trypanosoma brucei brucei strain 927/4 GUTat10.1; remark: listed apart in the source
[16] = HeLa cell cytotoxicity, dose response, cytotoxicity control for MgcRacGAP inhibitor project (AID 624300); type: functional
[17] = biological target: T3, Rac GTPase-activating protein 1 (Homo sapiens, UniProt Q9H0H5); assay: MgcRacGAP GTPase-activating activity inhibitors, confirmation, biochemical, ADP Hunter fluorescence, primary and confirmatory (AID 624330); type: functional
T3 sequence (Q9H0H5 whole entry): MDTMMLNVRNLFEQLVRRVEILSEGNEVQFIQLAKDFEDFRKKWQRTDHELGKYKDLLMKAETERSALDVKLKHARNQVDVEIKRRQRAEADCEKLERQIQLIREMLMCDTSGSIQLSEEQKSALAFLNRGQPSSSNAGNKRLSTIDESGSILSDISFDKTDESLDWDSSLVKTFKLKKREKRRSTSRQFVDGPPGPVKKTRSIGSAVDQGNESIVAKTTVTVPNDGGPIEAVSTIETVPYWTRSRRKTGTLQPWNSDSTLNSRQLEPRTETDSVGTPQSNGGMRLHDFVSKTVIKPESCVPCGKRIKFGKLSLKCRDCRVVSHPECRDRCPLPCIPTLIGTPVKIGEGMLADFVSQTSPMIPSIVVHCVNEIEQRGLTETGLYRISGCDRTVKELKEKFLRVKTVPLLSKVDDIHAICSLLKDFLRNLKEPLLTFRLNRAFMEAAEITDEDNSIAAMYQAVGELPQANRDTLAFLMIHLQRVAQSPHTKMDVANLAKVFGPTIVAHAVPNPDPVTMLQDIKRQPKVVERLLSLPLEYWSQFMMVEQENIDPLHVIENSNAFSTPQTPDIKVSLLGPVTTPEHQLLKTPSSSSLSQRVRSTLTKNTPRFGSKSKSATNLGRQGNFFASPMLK

[18] = biological target: T4, Sentrin-specific protease 1 (Homo sapiens, UniProt Q9P0U3); assay: potency of human SENP1 inhibitors, dose response, biochemical, kinetic FRET (AID 651697); type: functional; conditions: read-out: IC50_Mean
T4 sequence (Q9P0U3 whole entry): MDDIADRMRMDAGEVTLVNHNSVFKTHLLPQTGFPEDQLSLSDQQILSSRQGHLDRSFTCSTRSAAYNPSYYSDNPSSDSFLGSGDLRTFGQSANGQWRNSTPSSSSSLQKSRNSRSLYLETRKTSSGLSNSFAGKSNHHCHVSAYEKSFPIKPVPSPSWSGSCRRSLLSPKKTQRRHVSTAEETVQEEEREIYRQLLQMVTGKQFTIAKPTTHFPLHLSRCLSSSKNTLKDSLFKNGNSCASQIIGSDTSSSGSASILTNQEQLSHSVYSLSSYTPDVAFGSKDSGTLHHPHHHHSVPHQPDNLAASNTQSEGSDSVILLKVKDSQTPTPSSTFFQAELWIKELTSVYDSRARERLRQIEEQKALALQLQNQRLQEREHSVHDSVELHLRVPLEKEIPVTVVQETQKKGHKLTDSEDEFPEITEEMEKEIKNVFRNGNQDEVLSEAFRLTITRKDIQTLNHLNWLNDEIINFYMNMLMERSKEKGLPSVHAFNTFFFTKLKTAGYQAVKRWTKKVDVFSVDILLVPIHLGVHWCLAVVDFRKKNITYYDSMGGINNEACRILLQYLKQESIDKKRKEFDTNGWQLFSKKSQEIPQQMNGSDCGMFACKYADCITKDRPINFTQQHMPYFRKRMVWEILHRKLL

[19] = HEp-2 cell cytotoxicity, dose response, cytotoxicity control for RSV inhibitor project, HTS (AID 2410); type: functional; conditions: human respiratory syncytial virus
[20] = biological target: T4, Sentrin-specific protease 1; assay: Dose response confirmation of small molecule inhibitors of the catalytic domain of the SUMO protease, SENP1 in a FRET assay.; type: functional; conditions: read-out: IC50_Mean

CC(C)(C)c1ccc(S(=O)(=O)NCCc2ccncc2)cc1
AC50 [1]: 25 µM (active)

Cc1cc(C(=O)Nc2ccc(Cl)cc2)c(C)n1-c1ccccc1
AC50 [2]: > 52 µM (inactive) | AC50 [3]: > 52 µM (inactive) | AC50 [4]: > 52 µM (inactive) | EC50 [5]: < 0.1 µM (active) | EC50 [6]: 8.36 µM (active) | AC50 [7]: < 0.068 µM (active) | IC50 [8]: 0.017 µM (active) | EC50 [9]: 0.409 µM (active) | EC50 [10]: 0.149 µM (active) | EC50 (cells): 1.43 µM (active) | EC50 [11]: < 0.16 µM (active) | AC50 [12]: < 0.068 µM (active)

O=C(NCCCCc1ccccc1)Nc1cccc(F)c1
IC50 [13]: 15.5 µM (inactive) | IC50 [14]: 83.3 µM (inactive) | IC50 [15]: 11.9 µM (inactive)

COc1cc(/C=N/NC(=O)NC23CC4CC(CC(C4)C2)C3)ccc1O
CC50 [16]: 100 µM (active) | IC50 [17]: 54.5 µM (active)

COc1ccc(-c2ccc3c(c2)S(=O)(=O)c2cccc(C(=O)NCCOc4ccccc4)c2C3=O)cc1OC
IC50 [18]: 10.5 µM (active) | CC50 [19]: 46.1 µM (active) | IC50 [20]: 8.3 µM (active)
